ChEMBL document CHEMBL3046845, “A facile synthesis of novel optically active R,R-2-(4-(2-(4-(5-chloro-3-halo-pyridin-2-yloxy)-phenoxy)-propionyloxy)-phenoxy)-propionic acid esters using cyanuric chloride as potential herbicide” (Chin Chem Lett, 2011)

Tests used:
Avena fatua = test: Herbicidal activity against Avena fatua assessed as growth inhibition at 125 g/ha after 3 weeks relative to control; format: functional; conditions: 504 h, read-out: GI
Echinochloa crus-galli = test: Herbicidal activity against Echinochloa crus-galli (barnyard grass) assessed as growth inhibition at 125 g/ha after 3 weeks relative to control; format: functional; conditions: 504 h, read-out: GI
[1] = Phytotoxicity against Triticum aestivum (wheat) assessed as growth inhibition at 125 g/ha after 3 weeks relative to control; format: organism-based; conditions: in vivo, read-out: GI
[2] = Phytoxicity against Hordeum vulgare (barley) assessed as growth inhibition at 125 g/ha after 3 weeks relative to control; format: organism-based; conditions: in vivo, read-out: GI
Alopecurus myosuroides = test: Herbicidal activity against Alopecurus myosuroides assessed as growth inhibition at 125 g/ha after 3 weeks relative to control; format: functional; conditions: 504 h, read-out: GI

Compound	inhibition of growth at 125 g/ha (Avena fatua)	inhibition of growth at 125 g/ha (Echinochloa crus-galli)	inhibition at 504 h [1]	inhibition at 504 h [2]	inhibition of growth at 125 g/ha (Alopecurus myosuroides)
COC(=O)[C@@H](C)Oc1ccc(Oc2ncc(Cl)cc2F)cc1	90%	80%	10%	35%	75%
COC(=O)[C@@H](C)Oc1ccc(OC(=O)[C@@H](C)Oc2ccc(Oc3ncc(Cl)cc3F)cc2)cc1	90%	80%	0%	10%	80%
CCOC(=O)[C@@H](C)Oc1ccc(Oc2ncc(Cl)cc2F)cc1	90%	75%	5%	27%	82%
CCOC(=O)[C@@H](C)Oc1ccc(OC(=O)[C@@H](C)Oc2ccc(Oc3ncc(Cl)cc3F)cc2)cc1	93%	80%	0%	10%	90%
CCCOC(=O)[C@@H](C)Oc1ccc(Oc2ncc(Cl)cc2F)cc1	84%	62%	10%	35%	76%
CCCOC(=O)[C@@H](C)Oc1ccc(OC(=O)[C@@H](C)Oc2ccc(Oc3ncc(Cl)cc3F)cc2)cc1	89%	70%	0%	15%	79%
CC(C)OC(=O)[C@@H](C)Oc1ccc(Oc2ncc(Cl)cc2F)cc1	81%	57%	10%	30%	73%
CC(C)OC(=O)[C@@H](C)Oc1ccc(OC(=O)[C@@H](C)Oc2ccc(Oc3ncc(Cl)cc3F)cc2)cc1	85%	65%	0%	12%	78%
CCCCOC(=O)[C@@H](C)Oc1ccc(Oc2ncc(Cl)cc2F)cc1	62%	55%	15%	25%	54%
CCCCOC(=O)[C@@H](C)Oc1ccc(OC(=O)[C@@H](C)Oc2ccc(Oc3ncc(Cl)cc3F)cc2)cc1	63%	54%	5%	10%	62%
C#CCOC(=O)[C@@H](C)Oc1ccc(OC(=O)[C@@H](C)Oc2ccc(Oc3ncc(Cl)cc3F)cc2)cc1	100%	92%	0%	0%	100%
COC(=O)[C@@H](C)Oc1ccc(Oc2ncc(Cl)cc2Cl)cc1	30%	40%	10%	30%	30%
COC(=O)[C@@H](C)Oc1ccc(OC(=O)[C@@H](C)Oc2ccc(Oc3ncc(Cl)cc3Cl)cc2)cc1	43%	44%	0%	15%	42%
CCOC(=O)[C@@H](C)Oc1ccc(Oc2ncc(Cl)cc2Cl)cc1	50%	51%	10%	25%	45%
CCOC(=O)[C@@H](C)Oc1ccc(OC(=O)[C@@H](C)Oc2ccc(Oc3ncc(Cl)cc3Cl)cc2)cc1	54%	54%	0%	15%	52%
CCCOC(=O)[C@@H](C)Oc1ccc(Oc2ncc(Cl)cc2Cl)cc1	45%	40%	15%	18%	35%
CCCOC(=O)[C@@H](C)Oc1ccc(OC(=O)[C@@H](C)Oc2ccc(Oc3ncc(Cl)cc3Cl)cc2)cc1	50%	45%	0%	10%	36%
C#CCOC(=O)[C@@H](C)Oc1ccc(Oc2ncc(Cl)cc2Cl)cc1	47%	45%	0%	20%	57%
C#CCOC(=O)[C@@H](C)Oc1ccc(OC(=O)[C@@H](C)Oc2ccc(Oc3ncc(Cl)cc3Cl)cc2)cc1	50%	53%	0%	5%	60%
C#CCOC(=O)[C@@H](C)Oc1ccc(Oc2ncc(Cl)cc2F)cc1 [CLODINAFOP PROPARGYL]	95%	82%	0%	20%	88%
